Reference: paper PMC9241695, “Selective Metal Chelation by a Thiosemicarbazone Derivative Interferes with Mitochondrial Respiration and Ribosome Biogenesis in Candida albicans” (Microbiology Spectrum, 2022)
≈ marks a conversion by molar mass, not a printed value. Like-named read-outs stand apart in the source and are kept apart here.

Columns and labels:
C. albicans SC5314 [1] = test: Antifungal susceptibility testing, microbroth dilution MIC; assay type: cell-based; details: Candida albicans, read-out: MIC (μg/mL) against fungi SC5314
Excerpt: (§1) Compound library. The thiosemicarbazone derivatives Triapine and COTI-2 were purchased from Med Chem Express (MCE). The other 87 thiosemicarbazones used in this study were previously synthesized by our collaborators (1, 2). Their structures are shown in Table 1 and Table S1 to help the reader clearly understand the relationship between structure and activity.
(§2) Strains and culture conditions. Clinically derived C. albicans isolates, including G5, F5, and Gu5, were kindly provided by Professor Joachim Morschhäuser of the University of Würzburg. Other clinical C. albicans isolates were kindly donated by Professor Qingguo Qi of Shandong University and Qianfoshan Hospital of Shandong Province Other Candida strains were obtained from Jinan Central Hospital.
(§3) The zap1 mutant and its complemented strain were kindly provided by Professor Aaron P. Mitchell of Carnegie Mellon University (3). The C. neoformans strains used in this study was kindly donated by Professor Guojian Liao of Southwest University and A. fumigatus strain used in this study was provided by Professor Ling Lu of Nanjing Normal University. Before in vitro and in vivo experiments, all C. albicans strains were grown on YPD agar plates. After culturing at 30°C for 24 h, colonies of each strain were cultured in liquid YPD medium at 30°C with continuous shaking […]
(§4) Antifungal susceptibility testing. To determine in vitro antifungal activities, the microbroth dilution method was carried out in RPMI1640 medium according to the guidelines of the Clinical and Laboratory Standards Institute (4, 5). The initial concentration in RPMI1640 medium was 1 × 10^3 CFU/mL for the C. albicans and C. neoformans suspensions but 1 × 10^4 CFU/mL for A. fumigatus. The range of final drug concentrations was 0.0156–64 μg/mL. The plates were incubated at35°C for 24 […]
(§5) h (for C. albicans, C. krusei, C. tropicalis, C. parapsilosis) or 48 h (for C. neoformans, A. fumigatus). The MIC was determined based on visible growth inhibition compared with the control. All experiments were performed in duplicate. […]

A. fumigatus AF293 = test: as above; assay type: cell-based; details: Aspergillus fumigatus, read-out: MIC (μg/mL) against fungi AF293
Excerpt: as §1, §2
(§6) The zap1 mutant and its complemented strain were kindly provided by Professor Aaron P. Mitchell of Carnegie Mellon University (3). The C. neoformans strains used in this study was kindly donated by Professor Guojian Liao of Southwest University and A. fumigatus strain used in this study was provided by Professor Ling Lu of Nanjing Normal University. […]
as §4, §5

C. neoformans H99 = test: as above; assay type: cell-based; details: Cryptococcus neoformans, read-out: MIC (μg/mL) against fungi H99
Excerpt: as §1, §2, §6, §4, §5

[2] = test system: human bronchial epithelial cell line 16HBE; test: Cytotoxicity testing (MTT); assay type: cell-based; details: ratio of IC50 against 16HBE to MIC80 against C. albicans SC5314
Protocol: (§7) h (for C. albicans, C. krusei, C. tropicalis, C. parapsilosis) or 48 h (for C. neoformans, A. fumigatus). The MIC was determined based on visible growth inhibition compared with the control. All experiments were performed in duplicate.
(§8) Cytotoxicity testing. The cell lines HK2 and 16HBE were used to evaluate the cytotoxicity of 19ak, 19k and 19t. Cells in DMEM containing 10% fetal bovine serum (Gibco) were seeded in 96-well tissue culture plates at a cell density of 1 × 10^4 cells/mL and incubated for 24 h to allow adhesion. The supernatant was then replaced with fresh DMEM containing various concentrations of 19ak, 19k and 19t. The plates were subsequently incubated for an additional 48 h at 37°C with 5% CO2, followed by the addition of 10 μL of MTT solution to each well and incubation at 37°C for 4 h.
(§9) The effects of the compounds on cell proliferation were detected by measuring the absorbance at 570 nm in a microplate reader (BioTek, VT, USA). Three independent experiments were conducted. […]

[3] = Cytotoxicity testing (MTT); assay type: cell-based, human; details: human, 48 h, MTT
Protocol: as §7, §8, §9

[4] = test system: human renal epithelial cell line HK2; test: Cytotoxicity testing (MTT); assay type: cell-based; details: ratio of IC50 against HK2 to MIC80 against C. albicans SC5314
Protocol: as §7, §8, §9

C. albicans 24g = test: Microbroth dilution MIC80; assay type: cell-based; details: Candida albicans, 24G
Excerpt: as §1, §2, §3, §4, §5

C. albicans F5 = test: Microbroth dilution MIC80; assay type: cell-based; details: Candida albicans, F5
Excerpt: as §1, §2, §3, §4, §5

C. albicans DSY654 = test: Microbroth dilution MIC80; assay type: cell-based; details: Candida albicans
Excerpt: as §1, §2, §3, §4, §5

A. fumigatus 1161 = test: Microbroth dilution MIC80; assay type: cell-based; details: Aspergillus fumigatus
Excerpt: as §1, §2, §3, §4, §5

C. albicans CA4 = test: Microbroth dilution MIC80; assay type: cell-based; details: Candida albicans, CA4
Excerpt: as §1, §2, §3, §4, §5

C. tropicalis CT2 = test: Microbroth dilution MIC80; assay type: cell-based; details: Candida tropicalis, CT2
Excerpt: as §1, §2, §3, §4, §5

C. albicans YEM15 = test: Microbroth dilution MIC80; assay type: cell-based; details: Candida albicans, YEM15
Excerpt: as §1, §2, §3, §4, §5

C. albicans CA1 = test: Microbroth dilution MIC80; assay type: cell-based; details: Candida albicans, CA1
Excerpt: as §1, §2, §3, §4, §5

C. albicans CA3 = test: Microbroth dilution MIC80; assay type: cell-based; details: Candida albicans, CA3
Excerpt: as §1, §2, §3, §4, §5

C. albicans 11f = test: Microbroth dilution MIC80; assay type: cell-based; details: Candida albicans, 11F
Excerpt: as §1, §2, §3, §4, §5

C. albicans 28D = test: Microbroth dilution MIC80; assay type: cell-based; details: Candida albicans, 28D
Excerpt: as §1, §2, §3, §4, §5

C. neoformans 108 = test: Microbroth dilution MIC80; assay type: cell-based; details: Cryptococcus neoformans, 108
Excerpt: as §1, §2, §3, §4, §5

C. albicans YEM13 = test: Microbroth dilution MIC80; assay type: cell-based; details: Candida albicans
Excerpt: as §1, §2, §3, §4, §5

C. albicans 28A = test: Microbroth dilution MIC80; assay type: cell-based; details: Candida albicans, 28A
Excerpt: as §1, §2, §3, §4, §5

C. albicans 11e = test: Microbroth dilution MIC80; assay type: cell-based; details: Candida albicans, 11E
Excerpt: as §1, §2, §3, §4, §5

C. albicans 28I = test: Microbroth dilution MIC80; assay type: cell-based; details: Candida albicans, 28I
Excerpt: as §1, §2, §3, §4, §5

[5] = Cytotoxicity testing (MTT); assay type: cell-based, human; details: human, HepG2 cells (hepatocellular carcinoma cell line)
[6] = test system: human hepatocellular carcinoma cell line HepG2; test: Cytotoxicity testing (MTT); assay type: cell-based; details: ratio of IC50 against HepG2 to MIC80 against C. albicans SC5314
C. krusei CK1 = test: Microbroth dilution MIC80; assay type: cell-based, Candida krusei; details: Pichia kudriavzevii, CK1
Excerpt: as §1, §2, §3, §4, §5

C. parapsilosis CP001 = test: Microbroth dilution MIC80; assay type: cell-based, Candida parapsilosis; details: Lodderomyces parapsilosis, CP001
Excerpt: as §1, §2, §3, §4, §5

C. albicans SC5314 [7] = test: Minimal fungicidal concentration (MFC); assay type: cell-based; details: Candida albicans, read-out: MFC against C. albicans SC5314
C. albicans Gu5 = test: microbe, parasite or virus in culture; assay type: cell-based; details: Candida albicans, GU5
Excerpt: as §1, §2, §3, §4, §5

C. albicans G5 = test: microbe, parasite or virus in culture; assay type: cell-based; details: Candida albicans, G5
Excerpt: as §1, §2, §3, §4, §5

C. albicans SC5314 [8] = test: qPCR of genes associated with ribosome biogenesis; assay type: cell-based, Candida albicans; details: CPX 0.5 or 2 μg/mL 8 h; DFO 64 µg/mL 6 h; TPEN 0.05 or 0.2 μg/mL 6 h
Protocol: Determination of SOD activity. SOD activity was measured using the Superoxide Dismutase Activity Assay Kit (Njjcbio, Nanjing, China) following the manufacturer's instructions. An overnight culture of C. albicans SC5314 was adjusted to 1 × 10^7 cells/mL with RPMI1640 medium and treated with 19ak at a final concentration of 0, 0.125, 0.25, 0.5, or 1 μg/mL for 6 h. After collection by centrifugation, the cells were broken by glass beads in extraction buffer and centrifuged at 4°C. The absorbance of the supernatant of each sample was measured with a microplate reader at450 nm.
Determination of catalase (CAT) activity. CAT activity was measured by using a Catalase Assay Kit (Solarbio, Beijing, China) following the manufacturer's instructions. An overnight culture of C. albicans SC5314 was adjusted to 1 × 10^6 cells/mL with RPMI1640 medium and treated as described above for SOD activity.
The decomposition of H2O2 is directly accompanied by a decrease in absorbance at 240 nm, and the difference in absorbance per unit time (ΔA240) is a measure of […]
Quantitative real-time polymerase chain reaction (qPCR) analysis. C. albicans SC5314 cells (1 × 10^6 cells/mL) were incubated with or without 19ak (0.5,2 […]
Total RNA was extracted using the hot phenol method, and the RNA quality was analyzed using a spectrophotometer (Eppendorf, Hamburg, Germany). The RNA was converted to cDNA using a cDNA Reverse
Transcription kit (Accurate Biotechnology, Hunan, China). PCR detection based on SYBR Green was performed on an Eppendorf real-time PCR system (Eppendorf, […]
Drug resistance study. Drug resistance studies were carried out by repeatedly treating C. albicans with an antifungal agent followed by MIC determination using […]

[9] = AF293, standard strain of A. fumigatus, 48 h

S=C(N/N=C/c1ccccn1)N1CCOCC1 [Compound 19ao]
MIC (C. albicans SC5314 [1]; SC5314, 24 h): 2 µg/mL (≈ 7.99 µM) | MIC (A. fumigatus AF293; AF293, 48 h): 8 µg/mL (≈ 32 µM) | MIC (C. neoformans H99; H99, 48 h): 0.5 µg/mL (≈ 2 µM)

C/C(=N\NC(=S)Nc1ccc(Br)cc1)c1ccccn1 [Compound 19t]
MIC (C. albicans SC5314 [1]; SC5314, C. albicans wild-type strain, RPMI1640, 35°C, 24 h): 0.5 µg/mL (≈ 1.43 µM) | Selectivity index 16HBE [2]: 2.858 | IC50 at 48 h ([3]; 16HBE cells (bronchial epithelial cell line), 16HBE cells): 1.43 mg/L (≈ 4.09 µM) | IC50 at 48 h ([3]; HK2 cells (renal epithelial cell line), HK2 cells): 3.46 mg/L (≈ 9.9 µM) | Selectivity index HK2 [4]: 6.918 | MIC80 (C. albicans 24g): 0.25 mg/L (≈ 0.716 µM) | MIC80 (C. albicans F5): 0.25 mg/L (≈ 0.716 µM) | MIC80 (C. albicans DSY654): 0.25 mg/L (≈ 0.716 µM) | MIC80 (A. fumigatus 1161; 1161): 0.125 mg/L (≈ 0.358 µM) | MIC80 (C. albicans CA4): 0.25 mg/L (≈ 0.716 µM) | MIC80 (C. tropicalis CT2): 0.5 mg/L (≈ 1.43 µM) | MIC80 (C. albicans YEM15): 1 mg/L (≈ 2.86 µM) | MIC80 (C. albicans CA1): 0.25 mg/L (≈ 0.716 µM) | MIC80 (C. albicans CA3): 0.25 mg/L (≈ 0.716 µM) | MIC80 (C. albicans 11f): 0.25 mg/L (≈ 0.716 µM) | MIC80 (C. albicans 28D): 0.25 mg/L (≈ 0.716 µM) | MIC80 (C. neoformans 108): 0.031 mg/L (≈ 0.0888 µM) | MIC80 (C. albicans YEM13): 1 mg/L (≈ 2.86 µM) | MIC80 (C. albicans 28A): 0.25 mg/L (≈ 0.716 µM) | MIC80 (C. albicans 11e): 0.5 mg/L (≈ 1.43 µM) | MIC80 (C. albicans 28I): 0.5 mg/L (≈ 1.43 µM) | IC50 [5]: 1.39 mg/L (≈ 3.98 µM) | Selectivity index HepG2 [6]: 2.778 | MIC80 (C. krusei CK1): 0.5 mg/L (≈ 1.43 µM) | MIC80 (C. parapsilosis CP001): 0.5 mg/L (≈ 1.43 µM) | MFC (C. albicans SC5314 [7]): 64 mg/L (≈ 183 µM) | MIC (A. fumigatus AF293; [9]): 0.125 µg/mL (≈ 0.358 µM) | MIC (C. neoformans H99; H99, C. neoformans wild-type strain, 48 h): 0.031 µg/mL (≈ 0.0888 µM) | MIC80 (C. albicans Gu5): 1 mg/L (≈ 2.86 µM) | MIC80 (C. albicans G5): 1 mg/L (≈ 2.86 µM)

C[C@@H](c1ncncc1F)[C@](O)(Cn1cncn1)c1ccc(F)cc1F [VOR, voriconazole, reference compound]
MIC80 (A. fumigatus 1161; A. fumigatus 1161, read-out: MIC80): 0.25 mg/L (≈ 0.716 µM) | MIC (A. fumigatus AF293; [9]): 0.25 µg/mL (≈ 0.716 µM)

CC(=O)N(O)CCCCCNC(=O)CCC(=O)N(O)CCCCCNC(=O)CCC(=O)N(O)CCCCCN [DFO, deferoxamine]
Expression of genes associated with ribosome biogenesis (qPCR) (C. albicans SC5314 [8]): minor effects
